Assay [1] concerns the target T1, truncated PFA0210c (Trunc.) (Plasmodium falciparum, UniProt Q8I298).
T1 construct: gene PF3D7_0104200; residues 144-418 (C-terminal 48 residues removed); N-terminal MBP and C-terminal His6 kept; E. coli BL21(DE3)
The assay is described as follows: […]-phosphatidylcholine transfer from donor to acceptor vesicles. Type of assay: biochemical. As to conditions: pH 7.4, 37 °C, 30 min; 25 μg/ml protein; labelled compound (trace in phosphatidylcholine vesicles).

In assay [2] the target is T2, PFA0210c (full-length, FL) (Plasmodium falciparum, UniProt Q8I298).
T2 construct: gene PF3D7_0104200; residues 144-466 (N-terminal region omitted, START domain plus whole C-terminal extension); N-terminal MBP and C-terminal His6 kept; E. coli BL21(DE3); monomeric SEC fractions; strain only from the locus tag and parasite line
T2 sequence (Q8I298 144-466): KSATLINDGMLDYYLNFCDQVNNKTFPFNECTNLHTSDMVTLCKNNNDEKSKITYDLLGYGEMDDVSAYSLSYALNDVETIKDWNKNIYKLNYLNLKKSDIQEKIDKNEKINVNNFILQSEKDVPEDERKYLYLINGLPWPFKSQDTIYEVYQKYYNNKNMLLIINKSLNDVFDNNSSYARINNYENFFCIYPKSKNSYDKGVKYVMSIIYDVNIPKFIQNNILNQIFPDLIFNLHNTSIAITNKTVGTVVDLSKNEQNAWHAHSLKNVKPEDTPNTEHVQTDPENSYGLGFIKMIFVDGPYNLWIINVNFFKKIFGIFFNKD
The assay is described as above. Type of assay: biochemical. Conditions: pH 7.4, 37 °C, 30 min; 25 μg/ml protein; labelled compound (trace in phosphatidylcholine vesicles).

For the compound `CCCCCCCCCCCCCCCC(=O)OC[C@H](COP(=O)([O-])OCC[N+](C)(C)C)OC(=O)CCCCCCCCCCCCCCC` [L-α-dipalmitoyl-phosphatidylcholine], the phospholipid transfer activity entry was “All the truncated proteins showed higher phospholipid transfer activity than the full-length protein” in assay [1] and “measures the transfer of radiolabeled phosphatidylcholine from a small population of donor vesicles” in assay [2].

The record behind these values is article PMC5104948, “Regulation and Essentiality of the StAR-related Lipid Transfer (START) Domain-containing Phospholipid Transfer Protein PFA0210c in Malaria Parasites” (The Journal of Biological Chemistry, 2016).
